According to US20160089391A1, “Molecular Targets for Cardiovascular Disease” (Temple University-of the Commonwealth System of Higher …, priority 2014, published 2016):
Residues, ends and D or L forms follow the SMILES beside them.

Key:
mouse thoracic aorta = assay: Endothelium-dependent vascular relaxation to ACh in aortic rings treated ex vivo (multiple-wire myograph); conditions: for aortic endothelium-dependent vascular relaxation to ACh: aortic rings of HHcy/HG-Cbs−/+ mice preincubated with calpain inhibitor 20 μmol/L for 1 hour; for aortic endothelium-dependent vascular relaxation to ACh / endothelium-dependent vascular relaxation to ACh: p<0.05; for endothelium-dependent vascular relaxation to ACh: aortic rings of HHcy/HG-Cbs−/+ mice preincubated 1 hr with antioxidant (PEG-SOD 150 U/mL, Tempol 1 mmol/L, apocynin 10 μmol/L)
calpain [1] = conditions: mouse microvascular endothelial cells (Smolock et al., 2011); cited from earlier work
aorta of db/db mice = conditions: supplementation, via the NO pathway (Seto et al., 2010); cited from earlier work
eNOS-pThr495 = eNOS-pThr495 protein levels in HAECs; type: cell-based, human; conditions: HAECs with DL-Hcy 500 μmol/L and D-Glu 25 mmol/L 48 hrs; GFX 2 μmol/L 30 min; MDL 20 mmol/L 48 hrs; Adv-dnPKCβ2 200 MOI 72 hrs; siRNA 72 hrs
Experimental: (FIG. 7A). eNOS protein levels in mouse aorta of Cbs^−/+ mice (Left Panel) and HAECs (Right Panel). (FIG. 7B). eNOS-pThr497/495 protein levels in mouse aorta of Cbs^−/+ mice (Left Panel) and in HAECs (Right Panel). At the age of 8-week, Cbs^−/+ mice were fed with a high methionine diet (HM, methionine: 2% w/w) for 8 weeks, and/or injected with streptozotocin (STZ, i.p., 40 mg/kg) for 5 consecutive days starting from the first day of experiment. Mice fed with a control diet (CT, methionine: 0.37% w/w) and injected with vehicle (50 mmol/L citrate buffer) served as controls. Human aortic endothelial cells (HAECs, passage 8-9) were cultured in EC medium which contains 5 mmol/L D-glucose (D-Glu), treated with DL-homocysteine (DL-Hcy, 500 μmol/L) and/or D-Glu (25 mmol/L). (FIG. 7C). eNOS-pThr495 protein levels in HAECs. HAECs (passage 8-9) were cultured in EC medium which contains 5 mmol/L D-glucose (D-Glu), treated with DL-homocysteine (DL-Hcy, 500 μmol/L) and D-Glu (25 mmol/L for 48 hrs with or without non-specific PKC inhibitor GF109203X (GFX) (2 μmol/L, 30 min.); control adenoviruse (Ad-CT, 200 MOI, 72 hrs), dominant negative PKCβ2 adenovirus (Adv-dnPKCβ2, 200 MOI, 72 hrs); μ-calpain siRNA (μ-calpsiRNA, Santa Cruz #sc-29885, 72 hrs), or MDL ([…], 48 hrs, Sigma #M6690). (FIG. 7D). Transfection effect of Adv-dnPKCβ2in HAECs. Cultured HAECs (passage 8, 80% confluence) were treated with 12.5, 25, 50, 100 and 200 MOI Adv-dnPKCβ2 for 48 hrs. n=3, *p<0.05 vs control; †p<0.05 vs DL-Hcy-treated HAECs; ‡p<0.05 vs D-Glu-treated HAECs; #p<0.05 vs DL-Hcy/D-Glu-treated HAECs. Cbs, cystathionine β-synthase; eNOS, endothelial nitric oxide synthase; eNOS-pThr495/497, phosphorylation of eNOS at threonine 497 (mouse)/495 (human).
Human aortic endothelial cells (HAECs) were cultured in cell culture medium (M199, HyClone) as previously described (Wang et al., 1997, J Biol Chem 272:25380-25385). The HAECs were treated with DL-Hcy (200 or 500 μmol/L) and/or D-glucose (D-Glu, 25 mmol/L) for 24 or 48 hrs in the presence or absence of selected pharmacological inhibitors or siRNA or adenovirus.

NO production in HAECs = NO production in HAECs by DAF-FM staining; type: cell-based, human; conditions: HAECs; L-NAME 100 μmol/L added in the last hour (negative control)
Experimental: (§1) (FIG. 6A). Images of NO. Nitric oxide (NO) production in HAECs was measured by staining intact HAECs with NO marker DAF-FM. N^G-nitro-L-arginine methyl ester (L-NAME, 100 μmol/L, Sigma #N5751) was added in the last hour as a negative control. (FIG. 6B). Quantification of NO. (FIG. 6C). eNOS activity. Human aortic endothelial cells (HAECs) were cultured in EC medium which contains 5 mmol/L D-Glucose (D-Glu), and treated with DL-homocysteine (DL-Hcy, 500 μmol/L) and/or (D-Glu, 25 mmol) without or with MDL28170 (MDL) for 48 hrs, CTsiRNA or μ-calpsiRNA for 72 hrs. L-NAME (100 μmol/L) was added in the last hour. NO was measured by staining intact HAECs with NO marker (DAF-FM, 10 μmol/L, Sigma #D2321, 30 mins.). Endothelial nitric oxide synthase (eNOS) activity was assessed by measuring of ^3H-L-arginine conversion to ^3H-citrulline in intact HAECs. n=3, *p<0.05 vs control; †p<0.05 vs DL-Hcy-treated HAECs; ‡p<0.05 vs D-Glu-treated HAECs; #p<0.05 vs DL-Hcy/D-Glu-treated HAECs. DAF-FM, 4-Amino-5-methylamino-2′,7′-difluorescein; CTsiRNA, control siRNA; HG, hyperglycemia; HHcy, hyperhomocysteinemia; μ-calpsiRNA, μ-calpain siRNA.
(§2) HAECs treated with or without DL-Hcy and/or D-Glu for 48 hrs were stained with 4-Amino-5-Methylamino-2′,7′-Difluorofluorescein (DAF-FM). To explore the role of calpain, especially μ-calpain, the DL-Hcy/D-Glu-treated HAECs were also treated with MDL28170 (MDL, 20 μmol/L) and μ-calpain siRNA, respectively. HAECs treated with L-NAME (100 μmol/L) for 1 hr before DAF-FM staining were used as negative controls. eNOS activity in HAECs was determined by measuring the conversion of ^3H-Arg to ^3H-citrulline in intact cells as previous described (Jiang et al., 2005, Arterioscl Throm Vas 25:2515-2521).

eNOS = biological target: T1, eNOS (Homo sapiens, UniProt P29474); assay: eNOS activity in intact HAECs (3H-Arg to 3H-citrulline conversion); type: cell-based; conditions: HAECs; L-NAME 100 μmol/L added in the last hour
T1 construct: endogenous in cells; host or cells: HAECs (human aortic endothelial cells)
T1 sequence (P29474 2-1203 limits assumed): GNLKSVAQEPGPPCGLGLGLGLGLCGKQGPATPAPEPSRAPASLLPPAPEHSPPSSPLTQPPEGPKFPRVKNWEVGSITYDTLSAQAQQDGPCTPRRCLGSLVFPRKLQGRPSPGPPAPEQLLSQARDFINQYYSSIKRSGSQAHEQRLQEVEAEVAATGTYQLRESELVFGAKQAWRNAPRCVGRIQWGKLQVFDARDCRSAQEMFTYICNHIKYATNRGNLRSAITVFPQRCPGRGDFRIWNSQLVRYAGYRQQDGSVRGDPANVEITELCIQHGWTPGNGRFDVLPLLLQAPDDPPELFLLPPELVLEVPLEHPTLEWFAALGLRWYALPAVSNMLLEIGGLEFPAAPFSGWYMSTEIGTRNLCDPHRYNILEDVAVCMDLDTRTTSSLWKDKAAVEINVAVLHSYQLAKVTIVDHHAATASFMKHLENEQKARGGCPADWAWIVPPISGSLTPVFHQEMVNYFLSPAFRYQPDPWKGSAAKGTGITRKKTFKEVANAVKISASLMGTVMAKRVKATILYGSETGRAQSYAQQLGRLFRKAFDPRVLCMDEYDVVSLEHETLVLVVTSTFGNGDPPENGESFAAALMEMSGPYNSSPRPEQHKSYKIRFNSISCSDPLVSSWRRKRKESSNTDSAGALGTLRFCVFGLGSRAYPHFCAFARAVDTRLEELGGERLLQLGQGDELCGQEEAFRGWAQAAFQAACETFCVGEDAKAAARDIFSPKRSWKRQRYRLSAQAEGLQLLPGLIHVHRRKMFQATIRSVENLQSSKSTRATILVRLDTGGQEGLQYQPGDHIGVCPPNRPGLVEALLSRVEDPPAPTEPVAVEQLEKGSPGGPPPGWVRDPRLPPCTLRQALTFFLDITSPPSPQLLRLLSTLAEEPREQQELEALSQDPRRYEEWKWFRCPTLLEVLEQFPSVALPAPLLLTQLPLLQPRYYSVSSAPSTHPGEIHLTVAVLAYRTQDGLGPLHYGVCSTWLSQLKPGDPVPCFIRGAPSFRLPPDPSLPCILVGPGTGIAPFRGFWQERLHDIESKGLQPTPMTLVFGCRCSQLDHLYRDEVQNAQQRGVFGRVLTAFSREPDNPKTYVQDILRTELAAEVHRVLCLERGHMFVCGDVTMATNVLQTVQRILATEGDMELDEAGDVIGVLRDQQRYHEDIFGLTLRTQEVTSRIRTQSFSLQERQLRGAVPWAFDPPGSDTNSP
Experimental: as §1, §2

calpain [2] = assay: t-BOC calpain activity assay in intact HAECs; type: cell-based, human; conditions: HAECs treated with DL-Hcy 500 μmol/L and D-Glu 25 mmol/L; PEG-SOD 150 U/mL, 48 hrs
Experimental: (FIG. 5A). In situ .O2^− production in aorta. (FIG. 5B). Nitrotyrosine (3-NT) levels. Aortic paraffin-cross sections (7 μm) from Cbs^−/+ mice were stained with 3-NT antibody and 3,3′-diaminobenzidine (DAB, brown). (FIG. 5C). Urinary 8-isoprostane levels. At the age of 8-week, Cbs^+/+ and Cbs^−/+ mice were fed with a high methionine diet (HM, methionine: 2% w/w) for 8 weeks, and/or injected with streptozotocin (STZ, i.p., 40 mg/kg) for 5 consecutive days starting from the first day of experiment. Mice fed with a control diet (CT, methionine: 0.37% w/w) and injected with vehicle (50 mM citrate buffer) served as controls. Aortic cryo-cross sections (30 μm) from Cbs^−/+ mice were stained with the superoxide marker dihydroethidium (DHE, 3 μmol/L, 30 mins.). Urine was collected from 24 hrs metabolic cage. (FIG. 5D). Endothelium-dependent vascular relaxation in HHcy/HG CBS^−/+ mouse aorta in the presence of antioxidants. Arterial rings were pre-contracted with phenylephrine (1 μmol/L) and examined for relaxation to cumulative additions of ACh in the aorta of STZ-treated Cbs^−/+ mice on HM diet. The arterial rings were preincubated with antioxidants polyethylene glycol superoxide dismutase (PEG-SOD, 150 U/mL, Sigma #S9549), Tempol (1 mmol/L, Sigma #176141), or apocynin (10 μmol/L, Sigma #W508454) for 1 hr. n=3-5. *p<0.05 vs vehicle-treated Cbs^−/+ mice on CT diet; †p<0.05 vs vehicle-treated Cbs^−/+ mice on HM diet; ‡p<0.05 vs STZ-treated Cbs^−/+ mice on CT diet; #p<0.05 vs STZ-treated Cbs^−/+ mice on HM diet. (FIG. 5E). […] Calpain activity was measured by the fluorescent substrate t-BOC-Leu-Met-CMAC (T-BOC, 10 μmol/L, 30 min) Human aortic endothelial cells (HAECs, passage 8-9) were cultured in EC medium which contains 5 mmol/L D-glucose (D-Glu), treated with DL-homocysteine (DL-Hcy, 500 μmol/L) and/or D-Glu (25 mmol/L) with or without […] (150 U/mL) or MDL28170 (MDL, 20 μmol/L) for 48 hrs, or CTsiRNA and μ-calpsiRNA for 72 hrs. […] Transfection effect of μ-calpsiRNA in HAECs was detected by Western blot after transfected with the siRNA for indicated time. […]

Compound: CSCC[C@@H](C=O)NC(=O)[C@H](CC(C)C)NC(=O)[C@H](CC(C)C)NC(C)=O [ALLM, N-Acetyl-Leu-Leu-Met-CHO] (Ac-Leu-Leu-Met-aldehyde)
- aortic endothelium-dependent vascular relaxation to ACh (mouse thoracic aorta): markedly improved

Compound: CN(C)CCCn1cc(C2=C(c3c[nH]c4ccccc34)C(=O)NC2=O)c2ccccc21 [BIM-1]
- calpain activity (calpain [1]): decreased

Compound: Nc1nc2ncc(CNc3ccc(C(=O)N[C@@H](CCC(=O)O)C(=O)O)cc3)nc2c(=O)[nH]1 [Folic acid]
- endothelium-dependent vascular relaxation responses to ACh (aorta of db/db mice): improved

Compound: CN(C)CCCn1cc(C2=C(c3c[nH]c4ccccc34)C(=O)NC2=O)c2ccccc21 [GFX, GF109203X]
- HHcy/HG-induced eNOS-pThr495 (eNOS-pThr495): completely rescued

Compound: COC(=O)[C@@H](N)CCCNC(=N)N[N+](=O)[O-] [L-NAME, N^G-nitro-L-arginine methyl ester]
- NO generation (NO production in HAECs): 5.7%
- vascular relaxation response to ACh (mouse thoracic aorta; aorta of all groups (Cbs+/+ and Cbs−/+, HHcy and/or HG), L-NAME 100 μmol/L, 30 min): completely abolished
- eNOS activity (eNOS): 10%

Compound: CC1(C)CC(O)CC(C)(C)N1[O] [Tempol]
- endothelium-dependent vascular relaxation to ACh (mouse thoracic aorta): significantly improved

Compound: COc1cc(C(C)=O)ccc1O [apocynin]
- endothelium-dependent vascular relaxation to ACh (mouse thoracic aorta): significantly improved

Compound: CCCC[C@@H](C=O)NC(=O)[C@H](CC(C)C)NC(=O)OCc1ccccc1 [calpeptin]
- aortic endothelium-dependent vascular relaxation to ACh (mouse thoracic aorta): markedly improved

Compound: polyethylene glycol superoxide dismutase [PEG-SOD]
- endothelium-dependent vascular relaxation to ACh (mouse thoracic aorta): significantly improved
- decrease of HHcy/HG-induced calpain activation (calpain [2]): 49%
